Data as given in the supplement of paper PMC10307832.

What was measured:
Test in all cases: relative viability (nuclei count vs DMSO), 5 days (fraction); higher = more cells survive
[1] = compound: C/C(=N\NC(=S)N1CCC1)/C2=CC=CC=N2
Method in brief: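 Lung cancer cell lines were seeded into 1536-well plates, kept overnight at 37 °C and pinned with five library-drug doses (not always all listed) spaced by √10. After 5 days, nuclei were Hoechst-stained, imaged at 4× and counted with MetaXpress. Viability is treated-well nuclei over vehicle-well nuclei, taken as a median across plates. Plates needed control CV below 25% and at least one doubling.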

[2] = compound: C/C(=N\NC(=S)N1CCC1)/C2=CC=CC=N2 + CC1(C)CCC(c2ccc(Cl)cc2)=C(CN2CCN(c3ccc(C(=O)NS(=O)(=O)c4ccc(N[C@H](CCN5CCOCC5)CSc5ccccc5)c(S(=O)(=O)C(F)(F)F)c4)cc3)CC2)C1 [Navitoclax] (partner 0.5 µM)
Method in brief: (§1)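 Cells from lung cancer lines were seeded into 1536-well plates and, one day later, dosed by pin tool. Treatments were either a single drug or a fixed dose of an anchor drug with five library-drug doses (not always all listed) in √10 steps. After 5 days, nuclei were stained in a one-step fixation (final 0.05% Triton X-100, 1% formaldehyde, 1 ug/ml Hoechst) and counted on 4× images, and relative viability is the treated-to-vehicle nuclei ratio, as the median of duplicate plates.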

[3] = compound: C/C(=N\NC(=S)N1CCC1)/C2=CC=CC=N2 + COc1cc2c(Oc3ccc(NC(=O)C4(C(=O)Nc5ccc(F)cc5)CC4)cc3F)ccnc2cc1OCCCN1CCOCC1 [Foretinib] (partner 0.25 µM)
Method in brief: as §1

[4] = compound: C/C(=N\NC(=S)N1CCC1)/C2=CC=CC=N2 + CS(=O)(=O)CCNCc1ccc(-c2ccc3ncnc(Nc4ccc(OCc5cccc(F)c5)c(Cl)c4)c3c2)o1 [Lapatinib] (partner 2 µM)
Method in brief: as §1

[5] = compound: C/C(=N\NC(=S)N1CCC1)/C2=CC=CC=N2 + CS(=O)(=O)N1CCN(Cc2cc3nc(-c4cccc5[nH]ncc45)nc(N4CCOCC4)c3s2)CC1 [Pictilisib] (partner 1 µM)
Method in brief: as §1

[6] = compound: C/C(=N\NC(=S)N1CCC1)/C2=CC=CC=N2 + C[C@@H](Oc1cc(-c2cnn(C3CCNCC3)c2)cnc1N)c1c(Cl)ccc(F)c1Cl [Crizotinib] (partner 1 µM)
Method in brief: as §1

[7] = compound: C/C(=N\NC(=S)N1CCC1)/C2=CC=CC=N2 + C[C@]1(O)C[C@@H](c2nc(-c3ccc4ccc(-c5ccccc5)nc4c3)c3c(N)nccn32)C1 [Linsitinib] (partner 1 µM)
Method in brief: as §1

[8] = compound: C/C(=N\NC(=S)N1CCC1)/C2=CC=CC=N2 + Cc1nc(NC(=O)N2CCC[C@H]2C(N)=O)sc1-c1ccnc(C(C)(C)C(F)(F)F)c1 [Alpelisib] (partner 2 µM)
Method in brief: as §1

[9] = compound: C/C(=N\NC(=S)N1CCC1)/C2=CC=CC=N2 + N=C(N)NC(=N)NCCc1ccccc1 [Phenformin] (partner 250 µM)
Method in brief: as §1

[10] = compound: C/C(=N\NC(=S)N1CCC1)/C2=CC=CC=N2 + Nc1ncn([C@H]2C[C@H](O)[C@@H](CO)O2)c(=O)n1 [Decitabine] (partner 2 µM)
Method in brief: as §1

[11] = compound: C/C(=N\NC(=S)N1CCC1)/C2=CC=CC=N2 + O=C(c1cc(Cc2n[nH]c(=O)c3ccccc23)ccc1F)N1CCN(C(=O)C2CC2)CC1 [Olaparib] (partner 8 µM)
Method in brief: as §1

[12] = compound: C/C(=N\NC(=S)N1CCC1)/C2=CC=CC=N2 + CC(=O)Nc1cccc(-n2c(=O)n(C3CC3)c(=O)c3c(Nc4ccc(I)cc4F)n(C)c(=O)c(C)c32)c1 [Trametinib] (partner 0.02 µM)
Method in brief: as §1

[13] = compound: C/C(=N\NC(=S)N1CCC1)/C2=CC=CC=N2 + CC(=O)c1c(C)c2cnc(Nc3ccc(N4CCNCC4)cn3)nc2n(C2CCCC2)c1=O [Palbociclib] (partner 0.5 µM)
Method in brief: as §1

[14] = compound: C/C(=N\NC(=S)N1CCC1)/C2=CC=CC=N2 + CCNC(=O)c1noc(-c2cc(C(C)C)c(O)cc2O)c1-c1ccc(CN2CCOCC2)cc1 [Luminespib] (partner 0.01 µM)
Method in brief: as §1

[15] = compound: C/C(=N\NC(=S)N1CCC1)/C2=CC=CC=N2 + COc1cccc2cc(-c3nc([C@H]4CC[C@H](C(=O)O)CC4)n4ncnc(N)c34)[nH]c12 [OSI-027] (partner 0.5 µM)
Method in brief: as §1

[16] = compound: C/C(=N\NC(=S)N1CCC1)/C2=CC=CC=N2 + Cc1cc(Nc2cc(N3CCN(C)CC3)nc(Sc3ccc(NC(=O)C4CC4)cc3)n2)n[nH]1 [Tozasertib] (partner 0.1 µM)
Method in brief: as §1

[17] = compound: C/C(=N\NC(=S)N1CCC1)/C2=CC=CC=N2 + Cc1nc(Nc2ncc(C(=O)Nc3c(C)cccc3Cl)s2)cc(N2CCN(CCO)CC2)n1 [Dasatinib] (partner 0.075 µM)
Method in brief: as §1

[18] = compound: C/C(=N\NC(=S)N1CCC1)/C2=CC=CC=N2 + NC(=O)Nc1cc(-c2cccc(F)c2)sc1C(=O)N[C@H]1CCCNC1 [AZD7762] (partner 0.2 µM)
Method in brief: as §1

[19] = compound: C/C(=N\NC(=S)N1CCC1)/C2=CC=CC=N2 + Nc1nc2[nH]cc(CCc3ccc(C(=O)N[C@@H](CCC(=O)O)C(=O)O)cc3)c2c(=O)[nH]1 [Pemetrexed] (partner 0.2 µM)
Method in brief: as §1

[20] = compound: C/C(=N\NC(=S)N1CCC1)/C2=CC=CC=N2 + O=C(CCCCCCC(=O)Nc1ccccc1)NO [Vorinostat] (partner 1 µM)
Method in brief: as §1

A549
relative viability ([1]; 0.05 µM): 0.0587 | relative viability ([1]; 0.1581 µM): 0.0516 | relative viability ([1]; 0.5 µM): 0.0603 | relative viability ([1]; 1.581 µM): 0.0557 | relative viability ([1]; 5 µM): 0.0345 | relative viability ([2]; first compound 0.05 µM): 0.0538 | relative viability ([2]; first compound 0.1581 µM): 0.0583 | relative viability ([2]; first compound 0.5 µM): 0.05 | relative viability ([2]; first compound 1.581 µM): 0.0608 | relative viability ([2]; first compound 5 µM): 0.0344 | relative viability ([3]; first compound 0.05 µM): 0.0523 | relative viability ([3]; first compound 0.1581 µM): 0.0338 | relative viability ([3]; first compound 0.5 µM): 0.0289 | relative viability ([3]; first compound 1.581 µM): 0.0404 | relative viability ([3]; first compound 5 µM): 0.0168 | relative viability ([4]; first compound 0.05 µM): 0.065 | relative viability ([4]; first compound 0.1581 µM): 0.0607 | relative viability ([4]; first compound 0.5 µM): 0.0715 | relative viability ([4]; first compound 1.581 µM): 0.0714 | relative viability ([4]; first compound 5 µM): 0.0609 | relative viability ([5]; first compound 0.05 µM): 0.0548 | relative viability ([5]; first compound 0.1581 µM): 0.0774 | relative viability ([5]; first compound 0.5 µM): 0.0703 | relative viability ([5]; first compound 1.581 µM): 0.0543 | relative viability ([5]; first compound 5 µM): 0.0578 | relative viability ([6]; first compound 0.05 µM): 0.0427 | relative viability ([6]; first compound 0.1581 µM): 0.0518 | relative viability ([6]; first compound 0.5 µM): 0.0568 | relative viability ([6]; first compound 1.581 µM): 0.044 | relative viability ([6]; first compound 5 µM): 0.0637 | relative viability ([7]; first compound 0.05 µM): 0.083 | relative viability ([7]; first compound 0.1581 µM): 0.0782 | relative viability ([7]; first compound 0.5 µM): 0.0623 | relative viability ([7]; first compound 1.581 µM): 0.0706 | relative viability ([7]; first compound 5 µM): 0.053 | relative viability ([8]; first compound 0.05 µM): 0.0613 | relative viability ([8]; first compound 0.1581 µM): 0.0588 | relative viability ([8]; first compound 0.5 µM): 0.054 | relative viability ([8]; first compound 1.581 µM): 0.0318 | relative viability ([8]; first compound 5 µM): 0.0406 | relative viability ([9]; first compound 0.05 µM): 0.0324 | relative viability ([9]; first compound 0.1581 µM): 0.034 | relative viability ([9]; first compound 0.5 µM): 0.0226 | relative viability ([9]; first compound 1.581 µM): 0.0286 | relative viability ([9]; first compound 5 µM): 0.0232 | relative viability ([10]; first compound 0.05 µM): 0.0459 | relative viability ([10]; first compound 0.1581 µM): 0.0345 | relative viability ([10]; first compound 0.5 µM): 0.0375 | relative viability ([10]; first compound 1.581 µM): 0.0441 | relative viability ([10]; first compound 5 µM): 0.0197 | relative viability ([11]; first compound 0.05 µM): 0.0312 | relative viability ([11]; first compound 0.1581 µM): 0.0426 | relative viability ([11]; first compound 0.5 µM): 0.0325 | relative viability ([11]; first compound 1.581 µM): 0.0517 | relative viability ([11]; first compound 5 µM): 0.0367

NCI-H522
relative viability ([1]; 0.05 µM): 0.334 | relative viability ([1]; 0.1581 µM): 0.389 | relative viability ([1]; 0.5 µM): 0.351 | relative viability ([1]; 1.581 µM): 0.346 | relative viability ([1]; 5 µM): 0.358 | relative viability ([12]; first compound 0.05 µM): 0.367 | relative viability ([12]; first compound 0.1581 µM): 0.334 | relative viability ([12]; first compound 0.5 µM): 0.241 | relative viability ([12]; first compound 1.581 µM): 0.271 | relative viability ([12]; first compound 5 µM): 0.364 | relative viability ([13]; first compound 0.05 µM): 0.432 | relative viability ([13]; first compound 0.1581 µM): 0.376 | relative viability ([13]; first compound 0.5 µM): 0.284 | relative viability ([13]; first compound 1.581 µM): 0.381 | relative viability ([13]; first compound 5 µM): 0.412 | relative viability ([14]; first compound 0.05 µM): 0.353 | relative viability ([14]; first compound 0.1581 µM): 0.375 | relative viability ([14]; first compound 0.5 µM): 0.369 | relative viability ([14]; first compound 1.581 µM): 0.412 | relative viability ([14]; first compound 5 µM): 0.49 | relative viability ([15]; first compound 0.1581 µM): 0.341 | relative viability ([15]; first compound 0.5 µM): 0.495 | relative viability ([15]; first compound 5 µM): 0.561 | relative viability ([16]; first compound 0.1581 µM): 0.292 | relative viability ([16]; first compound 0.5 µM): 0.296 | relative viability ([16]; first compound 5 µM): 0.407 | relative viability ([17]; first compound 0.1581 µM): 0.332 | relative viability ([17]; first compound 0.5 µM): 0.494 | relative viability ([17]; first compound 5 µM): 0.416 | relative viability ([9]; first compound 0.1581 µM): 0.27 | relative viability ([9]; first compound 0.5 µM): 0.398 | relative viability ([9]; first compound 5 µM): 0.503 | relative viability ([18]; first compound 0.05 µM): 0.307 | relative viability ([18]; first compound 0.1581 µM): 0.279 | relative viability ([18]; first compound 0.5 µM): 0.24 | relative viability ([18]; first compound 1.581 µM): 0.292 | relative viability ([18]; first compound 5 µM): 0.397 | relative viability ([19]; first compound 0.05 µM): 0.243 | relative viability ([19]; first compound 0.1581 µM): 0.299 | relative viability ([19]; first compound 0.5 µM): 0.284 | relative viability ([19]; first compound 1.581 µM): 0.352 | relative viability ([19]; first compound 5 µM): 0.364 | relative viability ([10]; first compound 0.05 µM): 0.402 | relative viability ([10]; first compound 0.1581 µM): 0.456 | relative viability ([10]; first compound 0.5 µM): 0.333 | relative viability ([10]; first compound 1.581 µM): 0.345 | relative viability ([10]; first compound 5 µM): 0.385 | relative viability ([20]; first compound 0.05 µM): 0.272 | relative viability ([20]; first compound 0.1581 µM): 0.322 | relative viability ([20]; first compound 0.5 µM): 0.265 | relative viability ([20]; first compound 1.581 µM): 0.369 | relative viability ([20]; first compound 5 µM): 0.411 | relative viability ([11]; first compound 0.05 µM): 0.291 | relative viability ([11]; first compound 0.1581 µM): 0.335 | relative viability ([11]; first compound 0.5 µM): 0.303 | relative viability ([11]; first compound 1.581 µM): 0.311 | relative viability ([11]; first compound 5 µM): 0.329
